Assay results reported in patent publication US6399629B1, “Efflux pump inhibitors” (priority 1998, dated 2002).

Test system: Pseudomonas aeruginosa PAM1001
Assay: checkerboard assay (broth microdilution): levofloxacin MIC in presence of efflux pump inhibitor
Format: cell-based
Experimental: For compounds labeled with the prefix ‘M’, potentiation effect is observed by the reduction of the minimum inhibitory concentration of levofloxacin in the presence of the experimental efflux pump inhibitor. The activity of efflux pump inhibitors (EPI) in combination with fluoroquinolones, such as levofloxacin, is assessed by the checkerboard assay (Antimicrobial Combinations. In Antibiotics in Laboratory Medicine, Ed. Victor Lorian, M.D., Fourth edition, 1996, pp 333-338) using broth microdilution method performed as recommended by the National Committee for Clinical Laboratory Standards (1997). Methods for Dilution of Antimicrobial Susceptibility Tests for Bacteria That Grow Aerobically—Fourth Edition; Approved Standard. NCCLS Document M7-A4, Vol 17 No.2). The test organism used is Pseudomonas aeruginosa PAM1001. […] The compounds tabulated below are representative of the described invention.
In these assays, multiple dilutions of two drugs, namely the EPI and levofloxacin, are being tested, alone and in combination, at concentrations equal to, above and below their respective minimal inhibitory concentrations (MICs). In the case of EPI, most of these compounds are devoid of intrinsic antimicrobial activity and are tested up to the maximum concentration of 40 μg/mL. The MIC of levofloxacin against P. aeruginosa PAM1001 is 4 μg/mL.
The EPI tested are readily soluble in water and stock solutions are prepared at a final concentration of 2 mg/mL. Stock solutions are further diluted, according to the needs of a particular assay, in Mueller Hinton Broth (MHB). Stock solution can be stored at −80° C. Quinolones are solubilized according to the instructions of the manufacturers, at a concentration of 1 mg/mL. They are then further diluted in MHB. Stock solution can be stored at −80° C.
The checkerboard assay is performed in microtiter plates. Levofloxacin is diluted in the x axis, each column containing a single concentration of levofloxacin. The EPI is diluted in the y axis, each row containing an equal concentration of EPI. The result of these manipulations is that each well of the microtiter plate contains a unique combination of concentrations of the two agents. Each EPI are tested independently.
The assay is performed in MHB with a final bacterial inoculum of 5×10^5 CFU/mL (from an early-log phase culture). Microtiter plates are incubated during 20 h at 35° C. and are read using a microtiter plate reader (Molecular Devices) at 650 nm as well as visual observation using a microtiterplate reading mirror.

In the case of `N[C@H]1CN[C@H](C(=O)N[C@H](CCc2ccccc2)C(=O)Nc2cnc3ccccc3c2)C1` [Compound M7], the “Levofloxacin MIC Against P. aerugiuosa PAM1001 in Presence of Efflux Pump Inhibitor (EPI), Minimum Inhibitory Concentration” value (EPI Conc. 0 μg/mL) is reported as 4 µg/mL, the “Levofloxacin MIC Against P. aerugiuosa PAM1001 in Presence of Efflux Pump Inhibitor (EPI), Minimum Inhibitory Concentration” value (EPI Conc. 0.625 μg/mL) is reported as 4 µg/mL and the “Levofloxacin MIC Against P. aerugiuosa PAM1001 in Presence of Efflux Pump Inhibitor (EPI), Minimum Inhibitory Concentration” value (EPI Conc. 1.25 μg/mL) is reported as 4 µg/mL. For the same compound, the “Levofloxacin MIC Against P. aerugiuosa PAM1001 in Presence of Efflux Pump Inhibitor (EPI), Minimum Inhibitory Concentration” value (EPI Conc. 2.5 μg/mL) was 4 µg/mL, the “Levofloxacin MIC Against P. aerugiuosa PAM1001 in Presence of Efflux Pump Inhibitor (EPI), Minimum Inhibitory Concentration” value (EPI Conc. 5 μg/ mL) was 4 µg/mL and the “Levofloxacin MIC Against P. aerugiuosa PAM1001 in Presence of Efflux Pump Inhibitor (EPI), Minimum Inhibitory Concentration” value (EPI Conc. 10 μg/mL) was 4 µg/mL. For the same compound, the “Levofloxacin MIC Against P. aerugiuosa PAM1001 in Presence of Efflux Pump Inhibitor (EPI), Minimum Inhibitory Concentration” value (EPI Conc. 20 μg/mL) was 4 µg/mL and the “Levofloxacin MIC Against P. aerugiuosa PAM1001 in Presence of Efflux Pump Inhibitor (EPI), Minimum Inhibitory Concentration” value (EPI Conc. 40 μg/mL) was 0.06 µg/mL.

For `CC(C)C[C@@H](NC(=O)[C@@H]1C[C@@H](NC(=O)CN)CN1)C(=O)Nc1cnc2ccccc2c1` [Compound M8], the “Levofloxacin MIC Against P. aerugiuosa PAM1001 in Presence of Efflux Pump Inhibitor (EPI), Minimum Inhibitory Concentration” value (EPI Conc. 0 μg/mL) was 2 µg/mL, the “Levofloxacin MIC Against P. aerugiuosa PAM1001 in Presence of Efflux Pump Inhibitor (EPI), Minimum Inhibitory Concentration” value (EPI Conc. 0.625 μg/mL) was 2 µg/mL and the “Levofloxacin MIC Against P. aerugiuosa PAM1001 in Presence of Efflux Pump Inhibitor (EPI), Minimum Inhibitory Concentration” value (EPI Conc. 1.25 μg/mL) was 2 µg/mL. For the same compound, the “Levofloxacin MIC Against P. aerugiuosa PAM1001 in Presence of Efflux Pump Inhibitor (EPI), Minimum Inhibitory Concentration” value (EPI Conc. 2.5 μg/mL) was 2 µg/mL, the “Levofloxacin MIC Against P. aerugiuosa PAM1001 in Presence of Efflux Pump Inhibitor (EPI), Minimum Inhibitory Concentration” value (EPI Conc. 5 μg/ mL) was 2 µg/mL and the “Levofloxacin MIC Against P. aerugiuosa PAM1001 in Presence of Efflux Pump Inhibitor (EPI), Minimum Inhibitory Concentration” value (EPI Conc. 10 μg/mL) was 2 µg/mL. For the same compound, the “Levofloxacin MIC Against P. aerugiuosa PAM1001 in Presence of Efflux Pump Inhibitor (EPI), Minimum Inhibitory Concentration” value (EPI Conc. 20 μg/mL) was 1 µg/mL and the “Levofloxacin MIC Against P. aerugiuosa PAM1001 in Presence of Efflux Pump Inhibitor (EPI), Minimum Inhibitory Concentration” value (EPI Conc. 40 μg/mL) was 0.25 µg/mL.

In the case of `CN(C(=O)CN)[C@@H]1CN[C@H](C(=O)N[C@H](CCc2ccccc2)C(=O)Nc2cnc3ccccc3c2)C1` [Compound M9], the “Levofloxacin MIC Against P. aerugiuosa PAM1001 in Presence of Efflux Pump Inhibitor (EPI), Minimum Inhibitory Concentration” value (EPI Conc. 0 μg/mL) is reported as 4 µg/mL, the “Levofloxacin MIC Against P. aerugiuosa PAM1001 in Presence of Efflux Pump Inhibitor (EPI), Minimum Inhibitory Concentration” value (EPI Conc. 0.625 μg/mL) is reported as 4 µg/mL and the “Levofloxacin MIC Against P. aerugiuosa PAM1001 in Presence of Efflux Pump Inhibitor (EPI), Minimum Inhibitory Concentration” value (EPI Conc. 1.25 μg/mL) is reported as 4 µg/mL. The “Levofloxacin MIC Against P. aerugiuosa PAM1001 in Presence of Efflux Pump Inhibitor (EPI), Minimum Inhibitory Concentration” value (EPI Conc. 2.5 μg/mL) was 4 µg/mL, the “Levofloxacin MIC Against P. aerugiuosa PAM1001 in Presence of Efflux Pump Inhibitor (EPI), Minimum Inhibitory Concentration” value (EPI Conc. 5 μg/ mL) was 4 µg/mL and the “Levofloxacin MIC Against P. aerugiuosa PAM1001 in Presence of Efflux Pump Inhibitor (EPI), Minimum Inhibitory Concentration” value (EPI Conc. 10 μg/mL) was 4 µg/mL. For the same compound, the “Levofloxacin MIC Against P. aerugiuosa PAM1001 in Presence of Efflux Pump Inhibitor (EPI), Minimum Inhibitory Concentration” value (EPI Conc. 20 μg/mL) was 2 µg/mL and the “Levofloxacin MIC Against P. aerugiuosa PAM1001 in Presence of Efflux Pump Inhibitor (EPI), Minimum Inhibitory Concentration” value (EPI Conc. 40 μg/mL) was 0.06 µg/mL.

In the case of `COc1cc(C)c2ncc(NC(=O)[C@@H](CC(C)C)NC(=O)[C@@H]3C[C@@H](NC(=O)CN)CN3)cc2c1` [Compound M10, (2S,4R)-4-(2-Aminoacetamido)-N-[(1R)-3-3-methyl-1-(6-methoxy-8-methyl-3-quinolylcarbamoyl)butyl]-2-pyrrolidinecarboxamide], the “Levofloxacin MIC Against P. aerugiuosa PAM1001 in Presence of Efflux Pump Inhibitor (EPI), Minimum Inhibitory Concentration” value (EPI Conc. 0 μg/mL) is reported as 4 µg/mL, the “Levofloxacin MIC Against P. aerugiuosa PAM1001 in Presence of Efflux Pump Inhibitor (EPI), Minimum Inhibitory Concentration” value (EPI Conc. 0.625 μg/mL) is reported as 4 µg/mL and the “Levofloxacin MIC Against P. aerugiuosa PAM1001 in Presence of Efflux Pump Inhibitor (EPI), Minimum Inhibitory Concentration” value (EPI Conc. 1.25 μg/mL) is reported as 4 µg/mL. The “Levofloxacin MIC Against P. aerugiuosa PAM1001 in Presence of Efflux Pump Inhibitor (EPI), Minimum Inhibitory Concentration” value (EPI Conc. 2.5 μg/mL) was 4 µg/mL, the “Levofloxacin MIC Against P. aerugiuosa PAM1001 in Presence of Efflux Pump Inhibitor (EPI), Minimum Inhibitory Concentration” value (EPI Conc. 5 μg/ mL) was 4 µg/mL and the “Levofloxacin MIC Against P. aerugiuosa PAM1001 in Presence of Efflux Pump Inhibitor (EPI), Minimum Inhibitory Concentration” value (EPI Conc. 10 μg/mL) was 4 µg/mL. For the same compound, the “Levofloxacin MIC Against P. aerugiuosa PAM1001 in Presence of Efflux Pump Inhibitor (EPI), Minimum Inhibitory Concentration” value (EPI Conc. 20 μg/mL) was 1 µg/mL and the “Levofloxacin MIC Against P. aerugiuosa PAM1001 in Presence of Efflux Pump Inhibitor (EPI), Minimum Inhibitory Concentration” value (EPI Conc. 40 μg/mL) was 0.06 µg/mL.

With `CC(C)CC(NC(=O)C1CC(CN)CN1)C(=O)Nc1cnc2ccccc2c1` [Compound M13, (2R,4R)-4-(Aminomethyl)-N-[(1R)-3-methyl-1-quinolylcarbanioyl)bulyl]-2-pyrrolidinecarboxamide] the “Levofloxacin MIC Against P. aerugiuosa PAM1001 in Presence of Efflux Pump Inhibitor (EPI), Minimum Inhibitory Concentration” value (EPI Conc. 0 μg/mL) was 4 µg/mL, the “Levofloxacin MIC Against P. aerugiuosa PAM1001 in Presence of Efflux Pump Inhibitor (EPI), Minimum Inhibitory Concentration” value (EPI Conc. 0.625 μg/mL) was 4 µg/mL and the “Levofloxacin MIC Against P. aerugiuosa PAM1001 in Presence of Efflux Pump Inhibitor (EPI), Minimum Inhibitory Concentration” value (EPI Conc. 1.25 μg/mL) was 4 µg/mL. The “Levofloxacin MIC Against P. aerugiuosa PAM1001 in Presence of Efflux Pump Inhibitor (EPI), Minimum Inhibitory Concentration” value (EPI Conc. 2.5 μg/mL) was 2 µg/mL, the “Levofloxacin MIC Against P. aerugiuosa PAM1001 in Presence of Efflux Pump Inhibitor (EPI), Minimum Inhibitory Concentration” value (EPI Conc. 5 μg/ mL) was 1 µg/mL and the “Levofloxacin MIC Against P. aerugiuosa PAM1001 in Presence of Efflux Pump Inhibitor (EPI), Minimum Inhibitory Concentration” value (EPI Conc. 10 μg/mL) was 0.06 µg/mL. The “Levofloxacin MIC Against P. aerugiuosa PAM1001 in Presence of Efflux Pump Inhibitor (EPI), Minimum Inhibitory Concentration” value (EPI Conc. 20 μg/mL) was 0.06 µg/mL and the “Levofloxacin MIC Against P. aerugiuosa PAM1001 in Presence of Efflux Pump Inhibitor (EPI), Minimum Inhibitory Concentration” value (EPI Conc. 40 μg/mL) was 0.06 µg/mL.
